This is an account of results in PubChem BioAssay (NCI).

Each structure is given as a SMILES string.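 Five compound concentrations were applied to cells in 96-well plates for 48 hours; endpoints were derived by simple linear interpolation of the resulting dose-response curve. GI50 = concentration required for 50% inhibition of growth. TGI marks complete inhibition of growth.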 A value given as a limit tells only on which side of the number the result lay.

Test systems include OVCAR-3 ovarian; MDA-MB-231 breast; HCT-116 colon; OVCAR-5 ovarian; HOP-62 NSCLC; CCRF-CEM leukemia; HCC-2998 colon; A498 renal; SNB-19 CNS; MALME-3M melanoma.
Common to all, as to experiment: growth of human tumour cells (NCI), 48 h

Regarding `CCc1ccc2cc3c(ccc4ccccc43)c3c2c1CC3`, the GI50 in the test on OVCAR-3 ovarian, in the test on MDA-MB-231 breast, with HCT-116 colon, in the test on OVCAR-5 ovarian, with HOP-62 NSCLC and with CCRF-CEM leukemia was greater than 100 µM each time. Further, the GI50 with HCC-2998 colon, in the test on A498 renal, in the test with SNB-19 CNS and with MALME-3M melanoma was greater than 100 µM throughout. Also, the TGI with OVCAR-3 ovarian, in the test with MDA-MB-231 breast, in the test on HCT-116 colon, with OVCAR-5 ovarian, in the test on HOP-62 NSCLC and in the test with CCRF-CEM leukemia was greater than 100 µM in each case. The TGI in the test with HCC-2998 colon, in the test with A498 renal, in the test on SNB-19 CNS and in the test with MALME-3M melanoma was greater than 100 µM each time.

As for `COc1cc(C(=O)N[C@@H]2CCCN(C)C2)ccc1Nc1ncc2c(n1)N(C1CCCC1)CC(C)(C)C(=O)N2C`, the GI50 is 0.0442 µM with OVCAR-3 ovarian; 1.56 µM in the test on MDA-MB-231 breast; 0.0509 µM in the test on HCT-116 colon; 0.0608 µM in the test with OVCAR-5 ovarian; 0.0641 µM in the test on HOP-62 NSCLC; 0.0349 µM in the test on CCRF-CEM leukemia. Besides, the GI50 with HCC-2998 colon is 0.0498 µM; in the test on A498 renal it was 0.0715 µM; with SNB-19 CNS it was 0.23 µM; in the test with MALME-3M melanoma, 2.03 µM. For the same compound, the TGI in the test with OVCAR-3 ovarian is 16.1 µM; with MDA-MB-231 breast it was 15.6 µM; with HCT-116 colon, 5.21 µM; with OVCAR-5 ovarian it was 17.5 µM; in the test on HOP-62 NSCLC it was 10.2 µM; with CCRF-CEM leukemia it was 16.5 µM. Besides, the TGI in the test with HCC-2998 colon was determined as 14.7 µM; with A498 renal it was 0.774 µM; in the test on SNB-19 CNS, 20.4 µM; in the test on MALME-3M melanoma it was 10.6 µM.

For the compound `O=c1c2cc(F)ccc2sc2c(NCCCNCCO)nc3ccc(F)cc3c12`, the GI50 in the test with OVCAR-3 ovarian was 1.78 µM; in the test on MDA-MB-231 breast, 1.45 µM; in the test with HCT-116 colon, 1.84 µM; with OVCAR-5 ovarian, 1.62 µM; in the test with HOP-62 NSCLC, 1.61 µM; with CCRF-CEM leukemia, 2.24 µM. Moreover, the GI50 is 1.64 µM with HCC-2998 colon, 2.24 µM in the test with A498 renal, 1.72 µM with SNB-19 CNS and 1.63 µM with MALME-3M melanoma. For the same compound, the TGI was 3.38 µM in the test with OVCAR-3 ovarian; 2.88 µM in the test on MDA-MB-231 breast; 3.63 µM with HCT-116 colon; 3.04 µM with OVCAR-5 ovarian; 3.53 µM in the test with HOP-62 NSCLC; 5.08 µM with CCRF-CEM leukemia. The TGI was 3.18 µM in the test on HCC-2998 colon, 7.21 µM in the test with A498 renal, 3.29 µM in the test on SNB-19 CNS and 3.15 µM in the test on MALME-3M melanoma.

As to `C/C=C/C(C/C=C(\C)CO[Si](C)(C)C(C)(C)C)O[Si](C)(C)C(C)(C)C` (stereo not given), the TGI in the test with OVCAR-3 ovarian, in the test with MDA-MB-231 breast, in the test on HCT-116 colon, with OVCAR-5 ovarian, in the test with HOP-62 NSCLC and in the test with CCRF-CEM leukemia was greater than 100 µM each time. Further, the TGI in the test with HCC-2998 colon, in the test with A498 renal, with SNB-19 CNS and in the test with MALME-3M melanoma was greater than 100 µM throughout.

Turning to `COc1cc(-c2nn(-c3cccc(NC(=O)NCCNC(=O)c4ccccc4)c3)cc2-c2ccncc2)ccc1Cl`, the GI50 in the test on OVCAR-3 ovarian was 2.93 µM; in the test on MDA-MB-231 breast, 2.99 µM; with HCT-116 colon it was 0.392 µM; in the test on OVCAR-5 ovarian, 3.78 µM; with HOP-62 NSCLC it was 3.95 µM; in the test with CCRF-CEM leukemia it was 1.41 µM. The GI50 in the test with HCC-2998 colon was 5.42 µM; in the test with A498 renal, 4.72 µM; in the test with SNB-19 CNS, 4.83 µM; in the test with MALME-3M melanoma it was 1.97 µM. Further, the TGI in the test with OVCAR-3 ovarian, in the test on MDA-MB-231 breast, with HCT-116 colon, in the test with OVCAR-5 ovarian, in the test with HOP-62 NSCLC and in the test with CCRF-CEM leukemia was greater than 100 µM in each case. Besides, the TGI is greater than 100 µM in the test with HCC-2998 colon, greater than 100 µM in the test with A498 renal, greater than 100 µM in the test with SNB-19 CNS and 6.11 µM in the test with MALME-3M melanoma.

For the compound `CCn1nc(C#Cc2c(C)ccc3c(Nc4ccc(Cl)cc4)nccc23)c2c(N)ncnc21`, the GI50 with OVCAR-3 ovarian is 3.46 µM; in the test with MDA-MB-231 breast, 1.89 µM; with HCT-116 colon, 2.11 µM; with OVCAR-5 ovarian it was 9.19 µM; in the test on HOP-62 NSCLC, 4.01 µM; with CCRF-CEM leukemia, 3.31 µM. Further, the GI50 was 7.57 µM in the test with HCC-2998 colon, 2.54 µM with A498 renal, 4.93 µM with SNB-19 CNS and 2.1 µM with MALME-3M melanoma. For the same compound, the TGI in the test with OVCAR-3 ovarian was greater than 100 µM; in the test on MDA-MB-231 breast it was 27.8 µM; in the test with HCT-116 colon, greater than 100 µM; in the test with OVCAR-5 ovarian it was greater than 100 µM; in the test with HOP-62 NSCLC it was 78 µM; in the test with CCRF-CEM leukemia, greater than 100 µM. In addition, the TGI is greater than 100 µM with HCC-2998 colon, 8.65 µM in the test on A498 renal, greater than 100 µM in the test with SNB-19 CNS and 7.09 µM in the test with MALME-3M melanoma.

Regarding `C=C(C)[C@@H]1CC[C@]2(C(=O)OC)CC[C@]3(C)[C@H](CC[C@@H]4[C@@]5(C)CC/C(=N\OCCC(=NCCC#N)NOCCC#N)C(C)(C)[C@@H]5CC[C@]43C)[C@@H]12`, the GI50 is 5.17 µM in the test with OVCAR-3 ovarian; 10.3 µM in the test with MDA-MB-231 breast; 2.89 µM with HCT-116 colon; 16.7 µM in the test on OVCAR-5 ovarian; 12.5 µM in the test with HOP-62 NSCLC; 11.7 µM with CCRF-CEM leukemia. Also, the GI50 in the test with HCC-2998 colon was 13.8 µM; with A498 renal, 21.7 µM; in the test on SNB-19 CNS, 12.6 µM; with MALME-3M melanoma, 11.8 µM. The TGI with OVCAR-3 ovarian is 15.8 µM; in the test with MDA-MB-231 breast, greater than 50 µM; in the test with HCT-116 colon, greater than 50 µM; in the test with OVCAR-5 ovarian, greater than 50 µM; in the test on HOP-62 NSCLC it was greater than 50 µM; in the test on CCRF-CEM leukemia, greater than 50 µM. Besides, the TGI in the test on HCC-2998 colon, with A498 renal, in the test with SNB-19 CNS and in the test with MALME-3M melanoma was greater than 50 µM each time.
